{"source": "patent EP0476120B1", "about": "“PROCESS FOR PREPARING EQUIMOLAR SALTS OF ASPARTIC ACID AND MAGNESIUM, MAGNESIUM ASPARTATE SALT OBTAINED BY SAID PROCESS AND ITS APPLICATIONS” (LA[…] SPINDLER, priority 1990, dated 1991)", "key": {"[1]": {"system": "souris", "settings": "mouse; for Nombre de passages \"punis\" (moyenne): 60 min before test, controls 5,8", "description": "Le test est pratiqué chez des souris NMRI-HAN soumises à une diète hydrique préalable de 18 heures et réparties en séries de 15.\nL'appareillage utilisé consiste en une boite en plexiglas dont le sol est constitué de 4 plaques métalliques séparées les unes des autres. Un circuit d'alimentation permet d'établir une différence de potentiel entre deux plaques adjacentes grâce à un contacteur. Le test est pratiqué en plaçant doucement une souris sur une des plaques du fond de l'appareil ; les plaques sont électrifiées chaque fois que la souris passe de l'une à l'autre, de telle sorte qu'elle reçoit alors un choc électrique au niveau des pattes. Les paramètres du choc sont les suivants : durée de l'impulsion électrique égale à 0,5 seconde ; intensité égale à 0,6 milliampères. Ce choc induit chez les animaux une réaction motrice évidente de fuite, la souris traversant souvent 2 à 3 plaques successivement. Les conditions expérimentales adoptées ont été les suivantes : exploration libre pendant 15 secondes, traversée punie pendant la minute suivante, les résultats étant exprimés en nombre de passages \"punis\" pendant cette minute. Soixante souris ont été réparties de la façon suivante :\nLes administrations ont été réalisées par voie intra-gastrique, à partir de solutions aqueuses, sous un volume constant de 20 ml.kg⁻¹, 60 minutes avant le début du test. Les animaux contrôles ont reçu un même volume d'eau distillée.\nLes administrations ont été réalisées par voie intra-gastrique, à partir de solutions aqueuses, sous un volume constant de 20 ml.kg⁻¹ par produit 60 minutes avant le début du test. Les animaux contrôles ont reçu un même volume d'eau distillée.\nDans un premier temps a été calculée la DA 50 (dose anxiolytique 50) du Diazépam (Valium® 10 mg - Roche, ampoule 2ml) seul, administré à des doses suivant une progression géométrique de base 0,25 et de raison 2, soit respectivement 0,25, 0,5 l et 2 mg.kg⁻¹.\nLa DA 50 est déterminée à partir du pourcentage d'animaux tranquillisés. Est considéré comme tranquillisé tout animal dont le nombre de passages punis est égal ou supérieur à 9, c'est-à-dire à une valeur représentant une augmentation d'au moins 50 % par rapport au score moyen d'animaux non traités.\nToutes les administrations ont été réalisées par voie intra-gastrique à partir de solutions aqueuses, sous un volume constant de 20 ml.kg⁻¹ (eau distillée pour le groupe contrôle). […] La veille du test, les souris sont soumises à une diète hydrique de 18 heures. La dernière ingestion est pratiquée une heure avant l'étude, concomitamment avec le diazépam (Valium® 10 mg - Roche, ampoules de 2 ml)."}, "[2]": {"system": "souris", "settings": "mouse", "text": "Ces études ont été réalisées chez des souris mâles, de souche NMRI-Han, réparties au hasard en lots de 15 souris (séries traitées) et 20 souris (série contrôle).\nLa motilité a été mesurée à l'aide d'un actimètre \"type Dews\" (Brit. J. Pharmacol. 1953, 8 : 46). Les animaux sont placés un par un dans une enceinte rectangulaire en matière plastique transparente (mesures intérieures : L = 24 cm, l = 15 cm, h = 9,5 cm), couverte par un grillage métallique et traversée par deux faisceaux infra-rouges perpendiculaires situés à 2 cm au-dessus du plancher (médianes de l'enceinte); ces deux faisceaux viennent frapper deux cellules photo-électriques reliées à un compteur d'impulsions déclenché à chaque fois que l'animal coupe un des faisceaux. Les actimètres ont été placés dans une pièce non insonorisée mais en dehors de tout bruit aigu, à une température de l'ordre de 21°C.\nL'activité motrice a été mesurée au cours des 5 premières minutes (exploration non anxiogène) puis entre 5 et 15 minutes (activité basale non anxiogène).\nLes doses ont été calculées selon une progression géométrique de base 700 (correspondant au 1/10 de la DL 50) et de raison 2, soit respectivement 175, 350, 700 et 1400 mg.kg⁻¹.\nLes traitements sont réalisés 60 minutes avant le test.\nIl est identique à celui décrit dans l'exemple précédent.\nLes doses ont été calculées selon une progression géométrique de base 700 (correspondant au 1/10 de la DL 50) et de raison 2, soit respectivement 10,95; 21,9; 43,8; 87,5; 175; 350; 700 mg/kg. […] Les derniers traitements ont été réalisés 60 minutes avant le test."}, "[3]": {"system": "singes cynomolggus (Macaca fascicularis)", "settings": "monkey", "description": "L'étude a été réalisée chez sept singes cynomolggus (Macaca fascicularis), de sexe mâle et femelle, pesant entre 2 et 5 kg.\nUn mois avant le début de l'étude, sous anesthésie générale (kétamine + xylazine) huit électrodes (boules d'argent) ont été implantées dans la table osseuse, au niveau des aires frontale, centrale, pariétale et occipitale droites et gauche. L'électrocorticogramme a été enregistré sur un électroencéphalographe REEGA mini-huit (Alvar Electronic) en dérivations monopolaires par rapport à une référence commune.\nLes enregistrements ont été réalisés sur des animaux habitués au siège à contention, en position assise, dans une pièce calme mais non insonorisée, en ambiance lumineuse tamisée.\nLes huit dérivations EEG ont été analysées simultanément par un Neuromapper 1620 (Neuroscience) qui extrait du signal les transformées de Fourier (\"Fast Fourier Transform\" : FFT). En fait, 90 échantillons de 2 secondes, soit 3 minutes de tracé exempt d'artefact, ont été analysés. Les données recueillies correspondent à l'amplitude (»V) de chacune des 5 bandes de fréquence EEG classiques selon les bornes suivantes : delta de 0 à 4 Hz ; thêta de 7 à 8 Hz ; alpha de 8 à 13 Hz, bêta₁ de 13 à 20 Hz ; bêta₂ de 20 à 30 Hz.\nPour chacune de ces bandes ont ensuite été calculées : • Les puissances absolues en »V² • les puissances relatives (%), c'est-à-dire la puissance de chacune des bandes de fréquence rapportée à la puissance totale du spectre (power) • la \"SEF 95 % (Spectral Edge Frequency 95 %) qui est la fréquence en deçà de laquelle se situent 95 % de la puissance totale du spectre, • le rapport entre fréquences rapides et fréquences lentes : alpha+ bêta/delta + thêta ( α+β/δ+ϑ [formula] )\nLa dernière ingestion a précédé de 1 heure la seconde administration de diazépam.\nLe diazépam (ampoules injectables - Valium® 10 - Roche) a été administré par voie orale, en solution aqueuse, sous un volume de 10 ml/singe, à des doses comprises entre 0,5 mg.kg⁻¹ et 4 mg.kg⁻¹ (doses différentes du fait d'une sensibilité individuelle propre à chaque sujet).\n100 (le seuil de probabilité statistique choisi peut paraître élevé ; il est en rapport avec le faible nombre de sujets : n=7). L'ensemble de l'analyse statistique a été obtenu grâce au programme statistique SPSS/PC⁺ (SPSS Inc., Chicago)"}, "[4]": {"settings": "repeated daily dosing (13 days), 10.95 mg/kg P.O., last dose 60 min before test"}, "[5]": {"settings": "repeated daily dosing (13 days), 21.9 mg/kg P.O., last dose 60 min before test"}, "[6]": {"settings": "repeated daily dosing (13 days), 43.8 mg/kg P.O., last dose 60 min before test, 43.8 mg/kg"}, "[7]": {"settings": "repeated daily dosing (13 days), 43.8 mg/kg P.O., last dose 60 min before test, listed as Mag, 43.8 mg/kg"}, "[8]": {"settings": "repeated daily dosing (13 days), 87.5 mg/kg P.O., last dose 60 min before test"}, "[9]": {"settings": "repeated daily dosing (13 days), 175 mg/kg P.O., last dose 60 min before test"}, "[10]": {"settings": "repeated daily dosing (13 days), 350 mg/kg P.O., last dose 60 min before test, 350 mg/kg"}, "[11]": {"settings": "repeated daily dosing (13 days), 350 mg/kg P.O., last dose 60 min before test, listed as Mag, 350 mg/kg"}, "[12]": {"settings": "repeated daily dosing (13 days), 700 mg/kg P.O., last dose 60 min before test"}, "[13]": {"settings": "single dose 175 mg.kg⁻¹ P.O., 60 min before test"}, "[14]": {"settings": "single dose 350 mg.kg⁻¹ P.O., 60 min before test"}, "[15]": {"settings": "single dose 700 mg.kg⁻¹ P.O., 60 min before test"}, "[16]": {"settings": "single dose 700 mg.kg⁻¹ P.O., 60 min before test, listed as Mag"}, "[17]": {"settings": "single dose 1400 mg.kg⁻¹ P.O., 60 min before test"}}, "note": "“And” between values parts separate entries of the source, which are not always exact repeats. Identical values can stand only once. Like-named read-outs stand apart in the source and are kept apart here."}
{"substance": "α-β-aspartate de magnésium", "values": [{"measurement": "Nombre de passages \"punis\" (moyenne)", "setting": "[1]; single dose 300 mg.kg⁻¹ P.O.", "result": "n'accroît pas significativement"}, {"measurement": "Nombre de passages \"punis\" (moyenne)", "setting": "[1]; single dose 300 mg.kg⁻¹ P.O., listed as Mag", "result": "6,4"}, {"measurement": "Nombre de passages \"punis\" (moyenne)", "setting": "[1]; single dose 600 mg.kg⁻¹ P.O.", "result": "accru significativement"}, {"measurement": "Nombre de passages \"punis\" (moyenne)", "setting": "[1]; single dose 600 mg.kg⁻¹ P.O., listed as Mag", "result": "8,3"}, {"measurement": "Nombre de passages \"punis\" (moyenne)", "setting": "[1]; single dose 1200 mg.kg⁻¹ P.O.", "result": "accru significativement"}, {"measurement": "Nombre de passages \"punis\" (moyenne)", "setting": "[1]; single dose 1200 mg.kg⁻¹ P.O., listed as Mag", "result": "7,5"}, {"measurement": "dose optimum (propriétés tranquillisantes mineures)", "setting": "[1]; single dose P.O.", "result": 600, "unit": "mg/kg"}, {"measurement": "Activité motrice 0-5 minutes, nombre de coupures de faisceaux (moyenne)", "setting": "[2]; [4]", "result": 98}, {"measurement": "Activité motrice 0-15 minutes, nombre de coupures de faisceaux (moyenne)", "setting": "[2]; [4]", "result": 221}, {"measurement": "Activité motrice 5-15 minutes, nombre de coupures de faisceaux (moyenne)", "setting": "[2]; [4]", "result": 123}, {"measurement": "Activité motrice 0-5 minutes, nombre de coupures de faisceaux (moyenne)", "setting": "[2]; [5]", "result": 104}, {"measurement": "Activité motrice 0-15 minutes, nombre de coupures de faisceaux (moyenne)", "setting": "[2]; [5]", "result": 237}, {"measurement": "Activité motrice 5-15 minutes, nombre de coupures de faisceaux (moyenne)", "setting": "[2]; [5]", "result": 133}, {"measurement": "Activité motrice 0-15 minutes, nombre de coupures de faisceaux (moyenne)", "setting": "[2]; repeated daily dosing (13 days), 43.8 mg/kg P.O., last dose 60 min before test", "result": 232}, {"measurement": "Activité motrice 0-5 minutes, nombre de coupures de faisceaux (moyenne)", "setting": "[2]; [6]", "result": "élévation significative"}, {"measurement": "Activité motrice 5-15 minutes, nombre de coupures de faisceaux (moyenne)", "setting": "[2]; [6]", "result": "élévation significative"}, {"measurement": "Activité motrice 0-5 minutes, nombre de coupures de faisceaux (moyenne)", "setting": "[2]; [7]", "result": 104}, {"measurement": "Activité motrice 5-15 minutes, nombre de coupures de faisceaux (moyenne)", "setting": "[2]; [7]", "result": 128}, {"measurement": "Activité motrice 0-5 minutes, nombre de coupures de faisceaux (moyenne)", "setting": "[2]; [8]", "result": 99}, {"measurement": "Activité motrice 0-15 minutes, nombre de coupures de faisceaux (moyenne)", "setting": "[2]; [8]", "result": 195}, {"measurement": "Activité motrice 5-15 minutes, nombre de coupures de faisceaux (moyenne)", "setting": "[2]; [8]", "result": 96}, {"measurement": "Activité motrice 0-5 minutes, nombre de coupures de faisceaux (moyenne)", "setting": "[2]; [9]", "result": 106}, {"measurement": "Activité motrice 0-15 minutes, nombre de coupures de faisceaux (moyenne)", "setting": "[2]; [9]", "result": 228}, {"measurement": "Activité motrice 5-15 minutes, nombre de coupures de faisceaux (moyenne)", "setting": "[2]; [9]", "result": 122}, {"measurement": "Activité motrice 0-15 minutes, nombre de coupures de faisceaux (moyenne)", "setting": "[2]; repeated daily dosing (13 days), 350 mg/kg P.O., last dose 60 min before test", "result": 248}, {"measurement": "Activité motrice 0-5 minutes, nombre de coupures de faisceaux (moyenne)", "setting": "[2]; [10]", "result": "élévation significative"}, {"measurement": "Activité motrice 5-15 minutes, nombre de coupures de faisceaux (moyenne)", "setting": "[2]; [10]", "result": "élévation significative"}, {"measurement": "Activité motrice 0-5 minutes, nombre de coupures de faisceaux (moyenne)", "setting": "[2]; [11]", "result": 107}, {"measurement": "Activité motrice 5-15 minutes, nombre de coupures de faisceaux (moyenne)", "setting": "[2]; [11]", "result": 141}, {"measurement": "Activité motrice 0-5 minutes, nombre de coupures de faisceaux (moyenne)", "setting": "[2]; [12]", "result": 104}, {"measurement": "Activité motrice 0-15 minutes, nombre de coupures de faisceaux (moyenne)", "setting": "[2]; [12]", "result": 230}, {"measurement": "Activité motrice 5-15 minutes, nombre de coupures de faisceaux (moyenne)", "setting": "[2]; [12]", "result": 126}, {"measurement": "Activité motrice 0-5 minutes, nombre de coupures de faisceaux (moyenne)", "setting": "[2]; [13]", "result": 100}, {"measurement": "Activité motrice 0-15 minutes, nombre de coupures de faisceaux (moyenne)", "setting": "[2]; [13]", "result": 172}, {"measurement": "Activité motrice 5-15 minutes, nombre de coupures de faisceaux (moyenne)", "setting": "[2]; [13]", "result": 72}, {"measurement": "Activité motrice 0-5 minutes, nombre de coupures de faisceaux (moyenne)", "setting": "[2]; [14]", "result": 96}, {"measurement": "Activité motrice 0-15 minutes, nombre de coupures de faisceaux (moyenne)", "setting": "[2]; [14]", "result": 213}, {"measurement": "Activité motrice 5-15 minutes, nombre de coupures de faisceaux (moyenne)", "setting": "[2]; [14]", "result": 117}, {"measurement": "Activité motrice 0-5 minutes, nombre de coupures de faisceaux (moyenne)", "setting": "[2]; [15]", "result": "augmentation statistiquement significative"}, {"measurement": "Activité motrice 0-15 minutes, nombre de coupures de faisceaux (moyenne)", "setting": "[2]; [15]", "result": 258}, {"measurement": "Activité motrice 5-15 minutes, nombre de coupures de faisceaux (moyenne)", "setting": "[2]; [15]", "result": "augmentation statistiquement significative"}, {"measurement": "Activité motrice 0-5 minutes, nombre de coupures de faisceaux (moyenne)", "setting": "[2]; [16]", "result": 113}, {"measurement": "Activité motrice 5-15 minutes, nombre de coupures de faisceaux (moyenne)", "setting": "[2]; [16]", "result": 145}, {"measurement": "Activité motrice 0-5 minutes, nombre de coupures de faisceaux (moyenne)", "setting": "[2]; [17]", "result": 110}, {"measurement": "Activité motrice 0-15 minutes, nombre de coupures de faisceaux (moyenne)", "setting": "[2]; [17]", "result": 214}, {"measurement": "Activité motrice 5-15 minutes, nombre de coupures de faisceaux (moyenne)", "setting": "[2]; [17]", "result": 104}, {"measurement": "\"SEF 95%\" augmentée", "setting": "[3]; 50 mg.kg⁻¹ orally twice daily for two weeks, before diazepam", "result": "0,5 Hz"}, {"measurement": "puissance relative de la bande β accrue", "setting": "[3]; 50 mg.kg⁻¹ orally twice daily for two weeks, resting EEG, individual values of 4 of 7 subjects", "result": "4,4% and 3,6% and 6,2% and 13%"}, {"measurement": "ondes delta accrues", "setting": "[3]; 50 mg.kg⁻¹ orally twice daily for two weeks, individual values among the 3 other monkeys", "result": "5% and 8%"}, {"measurement": "proportion relative de la bande β₂", "setting": "[3]; after two weeks of α-β-aspartate de magnésium, before diazepam, reference before any drug 20 %", "result": 23, "unit": "%"}]}
